According to patent US12076307B2, “Compositions for prevention or treatment of acute radiation syndrome and other radiation exposure” (priority 2017, dated 2024):

Assays:
[1] = system: SD rat; experiment: Single-dose toxicity, SD rat; type: in vivo
Text: Various toxicology studies have been performed. All studies were GLP-compliant unless otherwise noted.

[2] = Plasma protein binding by rapid equilibrium dialysis, rat; settings: Rats, 4 hrs RED, n=3
Procedure: The plasma protein binding ability of EC-18 was tested by rapid equilibrium dialysis (RED). The chamber separated by a dialysis tubing membrane (cut-off: 8 kDa) was filled on one side with rat or human plasma mixed with phosphate buffer and on the other side with rat or human plasma mixed with the test or standard reference material (test concentration: 1 μM).

[3] = In vitro metabolite screening, monkey liver microsomes; type: in vitro ADME; settings: NHP, N=2
Procedure: [^14C]EC-18 or the positive control (7-ethoxycoumarin; 7-EC) reacted with microsomes prepared from hepatocytes of rats, dogs, monkeys, and humans, with or without cofactors, for 60 and 120 min. Then, the residual EC-18 concentration over time was measured by LC-RID ([^14C]EC-18) or LC-MS/MS (7-EC) (FIG. 63 and FIG. 64).
The LC-RID chromatographic profiles of radioactive metabolites produced in the 2-hr incubation reaction mixtures of the same test systems A, B, and C used to assess the metabolic and non-metabolic elimination rates of EC-18 were compared to the LC-UV chromatographic profiles of the synthetic reference material. […] The relative radioactivity of EC-18 accounted for 42-67% of total radioactivity. The peaks designated as M2, M3, and M5 were also determined in all species, and their relative radioactivity accounted for 12-34% of total radioactivity. The peaks of M4 and M6 were determined in monkeys and humans. M1 was abundantly detected in all species, but it was assumed to be a peak of early elution. The LC-UV chromatograms of reaction mixtures in each test system (FIGS. 65A-65C) and the relative radioactivity of the screened metabolites are shown in Table 25.

[4] = Plasma and lymphatic concentrations of EC-18 in rats after single oral administration; type: in vivo, rat; settings: for AUC(0-t) / Cmax / Tmax / half-life: n=3
Procedure: After administering a single oral dose of 500 or 2000 mg/kg of EC-18 (vehicle: olive oil) to male SD rats, the EC-18 concentration in the sampled plasma and lymphatic fluid was measured to generate the values of PK parameters (Table 16). […] The rate of increase in plasma Cmax and AUClast was lower than the rate of increase of the administered dosage.

[5] = Plasma and lymphatic concentrations of EC-18 in beagle dogs after single administration; type: in vivo, dog; settings: for Tmax / AUC(0-t) / half-life / Cmax: male, beagle, dog; for Tmax: po
Procedure: A single dose of EC-18 (1000, 2000, 4000 mg/kg by mouth or 100 mg/kg IV) was administered to male beagle dogs in fed condition and the concentration of EC-18 in plasma and lymph was measured using UHPLC-MS/MS.

[6] = target: CYP2D6 (Homo sapiens, UniProt P10635); experiment: CYP enzyme inhibition in human liver microsomes, CYP2D6
Text: CYP1A2, CYP2C9, CYP2C19, CYP2D6, and CYP3A4 are the CYP subfamily, which plays a critical role in the metabolism of most drugs.

[7] = system: EGFR; experiment: Western blot of EGFR activity, comparison to G-CSF; type: cell-based; settings: cells stimulated with neutrophil or G-CSF-activated neutrophils
Procedure: The effects of EC-18 in comparison to G-CSF to cells after γ-radiation were measured by western blot (FIG. 25). The experiment can i) show correlation between EGFR activity and the abnormal growth and metastasis induction of breast cancer cells in the TAN environment and ii) confirm inhibitory effect mechanism by PLAG treatment in this condition. In fact, it was confirmed that EGFR activity was increased in the groups stimulated with neutrophil or G-CSF-activated neutrophils, however, the activity of EGFR (Phosphorylation of EGFR) was decreased in the group treated with PLAG. FIG. 26 can show effects of PLAG in comparison to G-CSF.

[8] = male, SD, rat, Lymph, 500 mg/kg oral
[9] = male, SD, rat, Lymph, 2000 mg/kg oral
[10] = male, SD, rat, Plasma, 500 mg/kg oral
[11] = male, SD, rat, Plasma, 2000 mg/kg oral

Chain of CYP2D6 (P10635 whole entry): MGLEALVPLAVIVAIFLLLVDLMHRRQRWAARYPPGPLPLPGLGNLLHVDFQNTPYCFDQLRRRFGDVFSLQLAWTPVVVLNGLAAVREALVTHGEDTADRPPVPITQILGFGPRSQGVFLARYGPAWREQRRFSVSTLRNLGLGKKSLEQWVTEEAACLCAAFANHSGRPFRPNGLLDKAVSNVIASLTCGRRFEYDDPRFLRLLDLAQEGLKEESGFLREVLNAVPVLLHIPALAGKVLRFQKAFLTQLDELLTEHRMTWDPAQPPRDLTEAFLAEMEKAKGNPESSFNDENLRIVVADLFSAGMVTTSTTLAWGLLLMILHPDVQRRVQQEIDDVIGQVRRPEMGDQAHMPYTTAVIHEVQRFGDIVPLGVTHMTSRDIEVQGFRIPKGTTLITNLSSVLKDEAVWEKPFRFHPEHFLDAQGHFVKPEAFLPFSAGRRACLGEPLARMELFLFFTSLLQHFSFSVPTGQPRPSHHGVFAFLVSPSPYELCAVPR

With CCCCC/C=C\C/C=C\CCCCCCCC(=O)OC(COC(C)=O)COC(=O)CCCCCCCCCCCCCCC (centres unmarked) [EC-18, 1-palmitoyl-2-linoleoyl-3-acetylglycerol] as the compound, how does the Approximate lethal dose ([1]; Oral) read?
Its Approximate lethal dose is “dose: >2000 mg/kg”.

And the mortality ([1]; Oral, 0, 2000 mg/kg)?
The mortality was “No dead animals”.

And the “Plasma Protein Binding Rate” value ([2]; 1 μM)?
Its value is 98.8 ± 0.5%.

What about the fraction unbound at 4 hrs, 1 μM ([2]; rat, plasma, Plasma Protein Binding Rate) of the same compound?
The fraction unbound at 4 hrs, 1 μM was < 0.01.

What about the “Mean Peak Area in LC-RID” value ([3]; A (NADPH added), [14C]EC-18 2 hrs) of the same compound?
The value was 46.8%.

And the “Mean Peak Area in LC-RID” value ([3]; B (NADPH, PAPS, UDPGA added), 2 hrs)?
The value was 46.0%.

And the “Mean Peak Area in LC-RID” value ([3]; C (no cofactor added), 2 hrs)?
The value was 41.8%.

And the bioavailability ([4]; male, SD, rat, plasma, 500-2000 mg/kg oral, read-out: mean absolute bioavailability (BA))?
Its bioavailability is < 0.3%.

What about the AUC(0-t) [4, 8] of the same compound?
The AUC(0-t) was 903 ± 272 ng·h/mL.

And the Cmax [4, 8]?
Its Cmax is 78.1 ± 34.1 ng/mL.

And the Tmax [4, 8]?
Its Tmax is 3.33 ± 1.15 h.

And the AUC(0-t) [4, 9]?
The AUC(0-t) was 2630 ± 1130 ng·h/mL.

What about the Cmax [4, 9] of the same compound?
The Cmax was 245 ± 54.2 ng/mL.

What about the Tmax [4, 9] of the same compound?
The Tmax was 3 ± 2.65 h.

What about the half-life [4, 9] of the same compound?
Its half-life is 12.3 ± 5.08 h.

What about the AUC(0-t) [4, 10] of the same compound?
Its AUC(0-t) is 6.97 ± 8.2 ng·h/mL.

And the Cmax [4, 10]?
The Cmax was 6.87 ± 6.12 ng/mL.

What about the Tmax [4, 10] of the same compound?
Its Tmax is 0.5 ± 0.5 h.

What about the AUC(0-t) [4, 11] of the same compound?
The AUC(0-t) was 44.5 ± 39.5 ng·h/mL.

What about the Cmax [4, 11] of the same compound?
Its Cmax is 12.1 ± 6.66 ng/mL.

What about the Tmax [4, 11] of the same compound?
The Tmax was 1.67 ± 0.58 h.

What about the half-life [4, 11] of the same compound?
Its half-life is 3.07 ± 0.87 h.

And the “time to reach the lymphatic system” value ([4]; single oral)?
Its value is ≤ 3 h.

And the time to absorption ([4]; single oral 500 or 2000 mg/kg)?
The time to absorption was ≤ 2 h.

What about the F ([5]; 1000 mg/kg po, Plasma) of the same compound?
The F was 7.8%.

And the F ([5]; 2000 mg/kg po, Plasma)?
The F was 6.3%.

And the F ([5]; 4000 mg/kg po, Plasma)?
The F was 23.6%.

What about the Tmax ([5]; lymph, 1000 mg/kg, 1000 mg/kg po, Lymph, read-out: Tmax) of the same compound?
Its Tmax is 3.3 ± 0.9 h.

And the Tmax ([5]; lymph, 1000 mg/kg, 1000 mg/kg po, lymph, read-out: median Tmax)?
The Tmax was 4 h.

What about the Tmax ([5]; lymph, 2000 mg/kg, 2000 mg/kg po, Lymph, read-out: Tmax) of the same compound?
Its Tmax is 3.3 ± 0.9 h.

And the Tmax ([5]; lymph, 2000 mg/kg, 2000 mg/kg po, lymph, read-out: median Tmax)?
The Tmax was 4 h.

And the Tmax ([5]; lymph, 4000 mg/kg, 4000 mg/kg po, Lymph, read-out: Tmax)?
Its Tmax is 3.3 ± 1.9 h.

What about the Tmax ([5]; lymph, 4000 mg/kg, 4000 mg/kg po, lymph, read-out: median Tmax) of the same compound?
The Tmax was 2 h.

What about the Tmax ([5]; plasma, 1000 mg/kg, 1000 mg/kg po, Plasma, read-out: Tmax) of the same compound?
Its Tmax is 1.3 h.

What about the Tmax ([5]; plasma, 2000 mg/kg, 2000 mg/kg po, Plasma, read-out: Tmax) of the same compound?
The Tmax was 1.3 h.

What about the Tmax ([5]; plasma, 4000 mg/kg, 4000 mg/kg po, Plasma, read-out: Tmax) of the same compound?
Its Tmax is 6.7 h.

And the AUC(0-t) ([5]; 100 mg/kg IV, Plasma)?
Its AUC(0-t) is 7540 ± 1860 ng·h/mL.

What about the half-life ([5]; 100 mg/kg IV, Plasma) of the same compound?
Its half-life is 13.9 ± 2.3 h.

What about the AUC(0-t) ([5]; 1000 mg/kg po, Lymph) of the same compound?
The AUC(0-t) was 118000 ± 16700 ng·h/mL.

What about the Cmax ([5]; 1000 mg/kg po, Lymph) of the same compound?
Its Cmax is 35100 ± 5160 ng/mL.

And the AUC(0-t) ([5]; 1000 mg/kg po, Plasma)?
The AUC(0-t) was 5800 ± 2810 ng·h/mL.

What about the Cmax ([5]; 1000 mg/kg po, Plasma) of the same compound?
Its Cmax is 1750 ± 710 ng/mL.

What about the AUC(0-t) ([5]; 2000 mg/kg po, Lymph) of the same compound?
Its AUC(0-t) is 389000 ± 125000 ng·h/mL.

And the Cmax ([5]; 2000 mg/kg po, Lymph)?
Its Cmax is 40100 ± 8620 ng/mL.

What about the AUC(0-t) ([5]; 2000 mg/kg po, Plasma) of the same compound?
Its AUC(0-t) is 9490 ± 3850 ng·h/mL.

What about the Cmax ([5]; 2000 mg/kg po, Plasma) of the same compound?
The Cmax was 2110 ± 750 ng/mL.

And the AUC(0-t) ([5]; 4000 mg/kg po, Lymph)?
Its AUC(0-t) is 431000 ± 81300 ng·h/mL.

And the Cmax ([5]; 4000 mg/kg po, Lymph)?
Its Cmax is 46600 ± 1730 ng/mL.

And the half-life ([5]; 4000 mg/kg po, Lymph)?
The half-life was 3.3 ± 0.2 h.

And the AUC(0-t) ([5]; 4000 mg/kg po, Plasma)?
The AUC(0-t) was 71100 ± 31700 ng·h/mL.

And the Cmax ([5]; 4000 mg/kg po, Plasma)?
The Cmax was 6760 ± 3330 ng/mL.

And the IC50 [6]?
Its IC50 is 67.9 µM.

And the “activity of EGFR (Phosphorylation of EGFR)” value [7]?
The value was “decreased”.
